Measurements reported in article PMC9810691, “Structure-guided peptide engineering of a positive allosteric modulator targeting the outer pore of TRPV1 for long-lasting analgesia” (Nature Communications, 2023).
“Also recorded” adds a separate entry of the source. Where a SMILES comes first, the peptide text is derived from it. Bridges are numbered along the chain shown (N, C = ends).

How the values were obtained:
[1] = cited from earlier work
Source text: Transient receptor potential vanilloid 1 (TRPV1) ion channel is a polymodal nociceptor broadly expressed in sensory neurons involved in pain sensation, making this channel a target for analgesia. Since TRPV1 deletion in rodents led to significant tolerance to noxious heat hyperalgesia[3],[4], antagonists of TRPV1 became the first choice to develop analgesic agents targeting TRPV1 in the past decades. Pharmacological inhibition TRPV1 indeed effectively alleviates dental, rectal, and thermal pain[5],[6]. However, TRPV1 also plays critical roles in thermoregulation, thus its antagonists suf ... || Positive allosteric modulator (PAM) is defined as a ligand without direct activation of its target, but potentiates the activity of agonists of targets. PAMs of TRPV1 have shown significant analgesic effect by inducing calcium overloading in previous reports[11],[12]. For instance, MRS1477 is developed as a small molecule PAM of TRPV1[13]. […] However, as both De1 and De3 bind to the intracell ... || TRPV1 plays a critical role in the pathogenesis of chronic pain[30]–[33], and has been a long-pursued target for pain management. To circumvent the side effects of the first-generation channel inhibitors occurred in clinical trials, alternative strategies such as the PAMs of TRRV1 have been developed.

TRPV1 [2] = conditions: cited from earlier work
Source text: Positive allosteric modulator (PAM) is defined as a ligand without direct activation of its target, but potentiates the activity of agonists of targets. PAMs of TRPV1 have shown significant analgesic effect by inducing calcium overloading in previous reports[11],[12]. For instance, MRS1477 is developed as a small molecule PAM of TRPV1[13]. […] For instance, noxious heat, proton, and divalent cations induce conformational changes in the outer pore to activate TRPV1[27]–[29].

TRPV1 [3] = target: T1, TRPV1 (Mus musculus, UniProt Q704Y3); experiment: Whole-cell patch clamp: potentiation of proton-evoked TRPV1 current; type: cell-based, murine; conditions: pH 6.5; Hill fit; n = 4 cells; read-out: EC50, enhancement of proton-induced current
T1 sequence (Q704Y3 whole entry): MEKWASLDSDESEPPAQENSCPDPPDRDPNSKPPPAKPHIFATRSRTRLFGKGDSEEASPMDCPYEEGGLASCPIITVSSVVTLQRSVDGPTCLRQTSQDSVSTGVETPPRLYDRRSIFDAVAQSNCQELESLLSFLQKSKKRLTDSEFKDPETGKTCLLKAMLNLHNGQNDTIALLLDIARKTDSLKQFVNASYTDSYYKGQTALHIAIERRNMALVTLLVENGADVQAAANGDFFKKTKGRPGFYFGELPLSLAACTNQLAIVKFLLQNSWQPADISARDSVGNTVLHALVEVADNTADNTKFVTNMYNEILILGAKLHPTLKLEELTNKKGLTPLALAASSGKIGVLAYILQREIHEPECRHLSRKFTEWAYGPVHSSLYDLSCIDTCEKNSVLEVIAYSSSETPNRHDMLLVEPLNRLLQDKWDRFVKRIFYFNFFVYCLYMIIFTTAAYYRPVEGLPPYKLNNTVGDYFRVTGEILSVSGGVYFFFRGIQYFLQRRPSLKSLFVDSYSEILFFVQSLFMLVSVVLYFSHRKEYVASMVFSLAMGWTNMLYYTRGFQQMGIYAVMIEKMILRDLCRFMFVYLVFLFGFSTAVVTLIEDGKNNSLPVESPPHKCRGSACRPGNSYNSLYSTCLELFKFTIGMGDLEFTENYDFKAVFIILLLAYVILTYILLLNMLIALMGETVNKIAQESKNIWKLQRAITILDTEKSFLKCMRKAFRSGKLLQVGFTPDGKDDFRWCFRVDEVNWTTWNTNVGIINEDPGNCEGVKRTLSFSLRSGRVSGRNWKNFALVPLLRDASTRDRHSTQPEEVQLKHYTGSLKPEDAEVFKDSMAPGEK
Experimental: (§1) HEK293T cells are cultured using DMEM medium contained 10% FBS in a cell incubator with 5% CO2 at 37 °C. Plasmids of murine TRPV1, TRPV2, TRPV3 and human TRPA1 are labeled with YFP or GFP as indicators for subsequent electrophysiological recordings. cDNA constructs of ion channels were transiently transfected with Lipofectamine 2000 (Invitrogen, Carlsbad, CA). And one or 2 days after transient transfection, electrophysiological recordings were performed.
(§2) Patch-clamp recordings were carried out with a HEKA EPC10 amplifier controlled by PatchMaster software (HEKA). Patch pipettes were prepared from borosilicate glass and fire-polished to resistance of 3–8 MΩ by P-97 puller. Both bath solution and pipette solution contained 130 mM NaCl, 10 mM glucose, 0.2 mM EDTA, and 3 mM HEPES and were adjusted to pH 7.2–7.4 with NaOH for whole-cell recordings. For solution with pH lower than 6.5, HEPES was replaced by MES. Whole-cell recordings were performed at ±80 mV. Current was sampled at 10 kHz and filtered at 2.9 kHz. All recordings were performed at room temperature (25 °C). A gravity-driven system (RSC-200, Bio-Logic) with freely rotated perfusion tubes was used for the perfusion of peptide or ligands. Bath and ligand solution were delivered through separate tubes to minimize the mixing of solutions. […]
(§3) Data from whole-cell recordings were analyzed in Igor Pro version 5.05 (WaveMatrix). […]

TRPV1 [4] = target: T1, TRPV1; experiment: Calcium imaging, HEK293T cells expressing TRPV1; type: cell-based, murine; conditions: 30 μM s-RhTx with 10 nM capsaicin; n = 12
Experimental: as §1
(§4) Calcium imaging assay was performed as previously described[12],[20]. In brief, HEK293T cells expressing TRPV1 were incubated with 2 μM Fluo-4 AM (Thermo Fisher) in 2 mM calcium Ringer’s solution (140 mM NaCl, 5 mM KCl, 2 mM MgCl2, 2 mM CaCl2, 10 mM glucose, and 10 mM HEPES, pH 7.4). Fluorescence images of HEK293T cells were acquired with Nikon Eclipse Ti2 microscope with optiMOS charge-coupled device camera controlled by the Ocular Software (Molecular Devices). Fluo-4 AM was excited at 500/20-nm excitation, and fluorescence emission was detected at 535/30-nm. Fluorescence images were analyzed with Fiji software and Office Excel.

[5] = test system: DRG neurons, Trpv1-Ai14 mice; experiment: Trpv1+ and Nissl+ neurons in DRGs; type: in vivo; conditions: for Trpv1+ neurons (% of all neurons): sheet S5e
Experimental: (§5) Adult C57 BL/6 mice (male, 8–10 weeks) and Trpv1^-/- mice (Jax Strain #:003770) were used for behavioral studies. To specifically label Trpv1-positive nerve fibers in skin tissues, Trpv1-Cre mice[36] (Jax Strain #:017769) were crossed with floxed reporter lines (Ai32, Jax Strain #:012569 or Ai14, Jax Strain #:007914) to get the transgenic reporter (Trpv1-Ai32 or Trpv1-Ai14) mice. Mice were group-housed at 22–24 °C and relative humidity of 30–70% under the 12 h light-dark cycle with access to standard food and water ad libitum. All the animal procedures were approved by the Institutional Animal Care & Use Committee (IACUC) of Zhejiang University.
(§6) After appropriate survival times, the mice were deeply anesthetized with isoflurane and perfused through the ascending aorta with PBS, followed by 4% PFA. After the perfusion, the hind paw glabrous skins and L4-L6 DRGs were removed and postfixed in the same fixative overnight. Skin sections (30 μm) and DRG sections (10 μm) were cut in a cryostat. Sections were blocked with 2% BSA for 2 h at room temperature and then incubated with Deep-red 640/660-conjugated Nissl (1:1000) at room temperature for 2 h. Sections were then incubated with DAPI (1:10,000, Vector Laboratories, catalog H-1200) for 5 min, followed by three times washing with PBS for 5 min each. The stained and mounted sections were examined with a Nikon fluorescence microscope, and images were captured with a charge-coupled device Spot camera. For quantification analysis, at least three sections from each mouse were selected, and at least three mice were analyzed in each group. To evaluate Trpv1-positive nerve fiber degeneration, transgenic reporter (Trpv1-Ai32 or Trpv1-Ai14) mice were used for the quantification of intra-epidermal nerve fiber (IENF) density. IENF density was calculated by counting the number of IENF crossing the epidermis-dermis boundary within unit length.

TRPV1 [6] = target: T1, TRPV1; experiment: Whole-cell patch clamp: potentiation of capsaicin-evoked TRPV1 current; type: cell-based, murine
Experimental: as §1, §2, §3

TRPV1 E652D [7] = target: T2, TRPV1 E652D (Mus musculus, UniProt Q704Y3, E652D); experiment: Mutant cycle analysis: concentration response, Kd and L on TRPV1 E652D; type: cell-based, murine; conditions: mean ± S.E.M.
T2 sequence (Q704Y3 whole entry E652D): as the sequence (Q704Y3 whole entry) above, with E652D counted along it
Experimental: In this analysis, the ligand binding (represented by Kd) and subsequent conformational changes leading to channel opening (represented by L) were separately quantified. Kd and L were calculated by the formulae: EC50 = Kd/(1 + L) and Po max = L/(1 + L), when Po max and EC50 are experimentally measured[20],[21]. Previously we have successfully performed this analysis to establish the interactions between peptide toxin BmP01 and TRPV1[16].
(§7) Site mutations of mTRPV1 were generated by Fast Mutagenesis Kit (Takara Bio). Primers used to generate point mutations are summarized in Supplementary Table 1. All mutations were confirmed by sequencing.
Patch-clamp recordings were carried out with a HEKA EPC10 amplifier controlled by PatchMaster software (HEKA). Patch pipettes were prepared from borosilicate glass and fire-polished to resistance of 3–8 MΩ by P-97 puller. Both bath solution and pipette solution contained 130 mM NaCl, 10 mM glucose, 0.2 mM EDTA, and 3 mM HEPES and were adjusted to pH 7.2–7.4 with NaOH for whole-cell recordings. […]
as §3
The strength of coupling was determined by the coupling energy (kT multiplied by LnΩ, where k is the Boltzmann constant and T is temperature in Kelvin). LnΩ was calculated by the following equation: LnΩ=LnKd_1⋅Kd_4/Kd_2⋅Kd_3

[8] = local delivery; words
Experimental: 20 μl of CFA was injected first to induce a chronic pain model. […] All data were shown as mean ± S.E.M. Source data are available as a Source Data file.
Complete Freund’s adjuvant (CFA) was injected at a volume of 20 μl to induce chronic inflammatory pain.

[9] = test system: Trpv1+ nerve fibers, Trpv1-Ai32 / Trpv1-Ai14 mice; experiment: Trpv1+ intra-epidermal nerve fiber (IENF) quantification; type: in vivo; conditions: folded s-RhTx without capsaicin; words
Experimental: as §5, §6

TRPV1 E652D [10] = target: T2, TRPV1 E652D; experiment: Calcium imaging, TRPV1 mutant E652D; type: cell-based, murine; conditions: 30 μM s-RhTx with 10 nM capsaicin; n = 45
Experimental: as §7, §4

mouse hind paw = type: in vivo, mice; conditions: 2 μg folded s-RhTx with capsaicin 200 ng; n = 9; words
Source text: (§8) Figure R3. […] (A) Statistical […]
(§9) results of hind paw thickness in mice.
(§10) N.S., not significant, two-way ANOVA. n = 9 mice in each group. (B) H&E staining showing the results of cell […]
(§11) N.S., not significant, n = 3 mice in each group. Scale bar, 50 μm. All data were shown as mean ± s.e.m. […]
(§12) different experiment should be performed.
(§13) Response: We thank the reviewer for the insightful comments. We also agree with the reviewer that the local injections of s-RhTx in this study are not likely to change body temperature. To test […]
(§14) 1) in mice and measured body temperature. […]
(§15) n = 6 mice in each group. No significance in two-way ANOVA. All data were shown as mean ± s.e.m. […]

[11] = type: in vivo, mice; conditions: i.p. 10 mg kg-1 peptide with capsaicin 1 mg kg-1; n = 6; words
Source text: as §8, §9, §10, §11, §12, §13, §14, §15

mouse hind paw skin = type: in vivo, mice; conditions: 1 week; folded s-RhTx with capsaicin; n = 3; words
Source text: as §8, §9, §10, §11, §12, §13, §14, §15

TRPV2 = experiment: Selectivity: 2-APB-evoked TRPV2 current; type: cell-based, murine; conditions: 500 μM 2-APB; normalized to 4 mM 2-APB; mean ± S.E.M., n = 4
Experimental: as §1
(§16) Patch-clamp recordings were carried out with a HEKA EPC10 amplifier controlled by PatchMaster software (HEKA). Patch pipettes were prepared from borosilicate glass and fire-polished to resistance of 3–8 MΩ by P-97 puller. Both bath solution and pipette solution contained 130 mM NaCl, 10 mM glucose, 0.2 mM EDTA, and 3 mM HEPES and were adjusted to pH 7.2–7.4 with NaOH for whole-cell recordings. For solution with pH lower than 6.5, HEPES was replaced by MES. Whole-cell recordings were performed at ±80 mV. Current was sampled at 10 kHz and filtered at 2.9 kHz. All recordings were performed at room temperature (25 °C). A gravity-driven system (RSC-200, Bio-Logic) with freely rotated perfusion tubes was used for the perfusion of peptide or ligands. Bath and ligand solution were delivered through separate tubes to minimize the mixing of solutions. Patch pipette holding cells was placed in front of the perfusion tube outlet for perfusion.

TRPV3 = experiment: Selectivity: 2-APB-evoked TRPV3 current; type: cell-based, murine; conditions: 30 μM 2-APB; normalized to 1 mM 2-APB; mean ± S.E.M., n = 4
Experimental: as §1, §16

TRPA1 = experiment: Selectivity: AITC-evoked TRPA1 current; type: cell-based, human; conditions: 30 μM AITC; normalized to 1 mM AITC; mean ± S.E.M., n = 4
Experimental: as §1, §16

CCOC(=O)C1=C(c2ccccc2)NC(C)=C(C(=O)SCCOC)C1CC (centres unmarked) [MRS1477]
duration of analgesic effects [1]: about two weeks | TRPV1 activation by capsaicin (TRPV1 [2]): enhances TRPV1 activation by capsaicin

C=C(C)[C@]12C[C@@H](C)[C@@]34O[C@](Cc5ccccc5)(O[C@@H]1[C@@H]3C=C(COC(=O)Cc1ccc(O)c(OC)c1)C[C@]1(O)C(=O)C(C)=C[C@@H]41)O2 [resiniferatoxin]
cell death in TRPV1-expressing neurons [1]: induces cells death in TRPV1-expressing neurons

CC[C@H](C)[C@H](NC(=O)[C@@H]1CSSC[C@@H]2NC(=O)[C@H]([C@@H](C)O)NC(=O)[C@H](C(C)C)NC(=O)CNC(=O)[C@H](CC(N)=O)NC(=O)[C@@H](NC(=O)[C@@H]3CCCN3)CSSC[C@H](NC(=O)[C@H](CCCNC(=N)N)NC(=O)[C@H](Cc3ccc(O)cc3)NC(=O)CNC(=O)[C@H](CO)NC(=O)[C@@H]3CCCN3C2=O)C(=O)N[C@@H](CO)C(=O)N[C@@H]([C@@H](C)CC)C(=O)N[C@@H](C(C)C)C(=O)N[C@@H](CC(=O)O)C(=O)N[C@@H](CCCCN)C(=O)N[C@@H](CCC(N)=O)C(=O)N1)C(=O)N[C@@H](CCCCN)C(=O)N[C@@H](CCCCN)C(=O)N[C@@H](CCC(=O)O)C(=O)O [s-RhTx] (H-PCNGVTCPSGYRCSIVDKQCIKKE-OH; disulfide 2-13, 7-20)
EC50 (TRPV1 [3]): 1580 ± 500 nM | enhancement of intracellular calcium, WT TRPV1 (TRPV1 [4]): 56.09 ± 8.62% | Trpv1+ neuron proportion and total neuron density in DRGs ([5]; co-injection with capsaicin, 1 and 4 weeks, words, listed as folded s-RhTx): did not change at 1 week; also recorded: not significantly changed | Trpv1+ neurons (% of all neurons) ([5]; 1 week, Mouse # 1): 33.4% | Trpv1+ neurons (% of all neurons) ([5]; 1 week, Mouse # 2): 33.4% | Trpv1+ neurons (% of all neurons) ([5]; 1 week, Mouse # 3): 35.2% | Trpv1+ neurons (% of all neurons) ([5]; 4 weeks, Mouse # 1): 37.1% | Trpv1+ neurons (% of all neurons) ([5]; 4 weeks, Mouse # 2): 32.1% | Trpv1+ neurons (% of all neurons) ([5]; 4 weeks, Mouse # 3): 33.0% | EC50 (TRPV1 [6]): 890 ± 450 nM | EC50 (TRPV1 E652D [7]): 7160 ± 1420 nM | body temperature change [8]: did not cause any changes in the body temperature | IENF degeneration, peptide alone [9]: did not induce | increase of intracellular calcium fluorescence, E652D (TRPV1 E652D [10]): 47.5 ± 0.05% | local inflammation of hind paw (mouse hind paw): no obvious local | body temperature change, systemic [11]: didn’t change body temperature | recruitment of immune cells (mouse hind paw skin): did not induce the recruitment

NCCOB(c1ccccc1)c1ccccc1 [2-APB]
normalized TRPV2 current, 2-APB alone (TRPV2): 7.06 ± 2.25% | normalized TRPV3 current, 2-APB alone (TRPV3): 7.08 ± 3.57%

C=CCN=C=S [AITC]
normalized TRPA1 current, AITC alone (TRPA1): 41.06 ± 12.85%
